The test system of data set [1] is Liver microsome. The experiment in a line: Intrinsic clearance in human liver microsomes assessed per mg protein at 0.1 uM incubated for 7 to 60 mins in presence of NADPH by LC/MS/MS method. The data set is classed as ADME. Set-up: unit not given here. (In general: Liver microsomes are a subcellular fraction often used to study metabolism.)
The nature of data set [2]: Half life in human liver microsomes at 0.1 uM in presence of NADPH by LC/MS/MS method. The data set is classed as ADME.
Data set [3] concerns Liver microsome. Description: Intrinsic clearance in Sprague-Dawley rat liver microsomes assessed per mg protein at 0.1 uM incubated for 7 to 60 mins in presence of NADPH by LC/MS/MS method. The data set is classed as ADME. Set-up: unit not given here.
Data set [4] has as its system Staphylococcus aureus. Description: Antibacterial activity against methicillin-sensitive Staphylococcus aureus incubated for 16 hrs by agar dilution method. The data set is classed as functional. For orientation: Agar dilution tests growth on a series of plates holding different concentrations.
Data set [5] has as its system Staphylococcus epidermidis. The experiment in a line: Antibacterial activity against methicillin-sensitive Staphylococcus epidermidis incubated for 16 hrs by agar dilution method. The data set is classed as functional.
The nature of data set [6]: Half life in Sprague-Dawley rat liver microsomes at 0.1 uM in presence of NADPH by LC/MS/MS method. The data set is classed as ADME.
The subject of the next data set is Enterococcus faecalis. The experiment in a line: Antibacterial activity against Enterococcus faecalis incubated for 16 hrs by agar dilution method. The data set is classed as functional.
For another data set, the system named is Streptococcus pneumoniae. The experiment in a line: Antibacterial activity against penicillin-resistant Streptococcus pneumoniae incubated for 16 hrs by agar dilution method. The data set is classed as functional.
Data set [7] has as its system Staphylococcus epidermidis. The experiment in a line: Antibacterial activity against methicillin-resistant Staphylococcus epidermidis incubated for 16 hrs by agar dilution method. The data set is classed as functional.
For data set [8], the system named is Staphylococcus aureus. Description: Antibacterial activity against methicillin-resistant Staphylococcus aureus incubated for 16 hrs by agar dilution method. The data set is classed as functional.
Data set [9] deals with Staphylococcus aureus. The experiment in a line: Antibacterial activity against Staphylococcus aureus […] incubated for 16 hrs by agar dilution method. The data set is classed as functional.

Values after ≈ are worked out from the molar mass of the structure shown.

With `CC(=O)NC[C@@H]1OC(=O)N2c3ccc(-c4ccc(N5CCOC5=O)nc4)cc3SC[C@@H]12`, the CLH is reported as 3.47 in the data set on Liver microsome [1] and 5.71 in the data set on Liver microsome [3]. The half-life at 0.1 µM worked out at 10.1 h in data set [2] and 6.13 h in [6]. Besides, the MIC worked out at 4 µg/mL (≈ 9.08 µM) in the data set on Staphylococcus aureus [4]; 2 µg/mL (≈ 4.54 µM) in data set [5]; 4 µg/mL (≈ 9.08 µM) with Enterococcus faecalis; 1 µg/mL (≈ 2.27 µM) against Streptococcus pneumoniae; 2 µg/mL (≈ 4.54 µM) in data set [7]; 2 µg/mL (≈ 4.54 µM) against Staphylococcus aureus [8]. Further, inhibition of growth with Staphylococcus aureus [9] (MIC) required 4 µg/mL (≈ 9.08 µM).
For the compound `CC(=O)NC[C@@H]1OC(=O)N2c3ccc(-c4ccc(C5(C#N)CC5)nc4)cc3SC[C@@H]12`, the minimal inhibitory concentration (MIC) in the data set on Staphylococcus aureus [4] was determined as 4 µg/mL (≈ 9.51 µM); in data set [5], 2 µg/mL (≈ 4.76 µM); in the data set with Enterococcus faecalis it was 4 µg/mL (≈ 9.51 µM); against Streptococcus pneumoniae, 2 µg/mL (≈ 4.76 µM); in [7], 2 µg/mL (≈ 4.76 µM); in the data set on Staphylococcus aureus [8], 2 µg/mL (≈ 4.76 µM). In the data set on Staphylococcus aureus [9], this compound registered an MIC of 4 µg/mL (≈ 9.51 µM).
For `COc1ccc(-c2ccc3c(c2)SC[C@H]2[C@H](CNC(C)=S)OC(=O)N32)cn1`, the MIC with Staphylococcus aureus [4] stood at 4 µg/mL (≈ 9.96 µM); in [5], 4 µg/mL (≈ 9.96 µM); against Enterococcus faecalis, 8 µg/mL (≈ 19.9 µM); in the data set on Streptococcus pneumoniae it was 2 µg/mL (≈ 4.98 µM); in data set [7], 4 µg/mL (≈ 9.96 µM); with Staphylococcus aureus [8], 4 µg/mL (≈ 9.96 µM). The same compound showed an MIC against Staphylococcus aureus [9] of 4 µg/mL (≈ 9.96 µM).
In the case of `CC(=S)NC[C@@H]1OC(=O)N2c3ccc(-c4ccc(F)nc4)cc3SC[C@@H]12`, the MIC in the data set with Staphylococcus aureus [4] turned out to be 8 µg/mL (≈ 20.5 µM); in [5], 2 µg/mL (≈ 5.14 µM); in the data set on Enterococcus faecalis it was 2 µg/mL (≈ 5.14 µM); in the data set on Streptococcus pneumoniae it was 1 µg/mL (≈ 2.57 µM); in data set [7], 1 µg/mL (≈ 2.57 µM); in the data set with Staphylococcus aureus [8] it was 2 µg/mL (≈ 5.14 µM). The same compound gave a minimal inhibitory concentration (MIC) against Staphylococcus aureus [9] of 8 µg/mL (≈ 20.5 µM).
As to `CC(=S)NC[C@@H]1OC(=O)N2c3ccc(-c4ccc(C#N)nc4)cc3SC[C@@H]12`, the MIC is 8 µg/mL (≈ 20.2 µM) with Staphylococcus aureus [4]; 4 µg/mL (≈ 10.1 µM) in [5]; above 16 µg/mL with Enterococcus faecalis; 4 µg/mL (≈ 10.1 µM) in the data set with Streptococcus pneumoniae; 4 µg/mL (≈ 10.1 µM) in [7]; 4 µg/mL (≈ 10.1 µM) in the data set with Staphylococcus aureus [8]. For the same compound, the MIC against Staphylococcus aureus [9] stood at 8 µg/mL (≈ 20.2 µM).
As to `CC(=S)NC[C@@H]1OC(=O)N2c3ccc(-c4ccc(N5CCOC5=O)nc4)cc3SC[C@@H]12`, the CLH with Liver microsome [1] is on record as 63.4; with Liver microsome [3] it was 99.6. In addition, the half-life at 0.1 µM was found to be 0.55 h in [2] and 0.35 h in [6]. Moreover, the MIC against Staphylococcus aureus [4] was 2 µg/mL (≈ 4.38 µM); in [5], 1 µg/mL (≈ 2.19 µM); in the data set with Enterococcus faecalis, 1 µg/mL (≈ 2.19 µM); with Streptococcus pneumoniae, 1 µg/mL (≈ 2.19 µM); in data set [7], 1 µg/mL (≈ 2.19 µM); in the data set on Staphylococcus aureus [8], 1 µg/mL (≈ 2.19 µM). The MIC against Staphylococcus aureus [9] came to 2 µg/mL (≈ 4.38 µM).
Consider `CC(=O)NC[C@@H]1OC(=O)N2c3ccc(-c4ccc(N5CCOC5=O)nc4)cc3[S+]([O-])C[C@@H]12` (stereo not given in full), for which the MIC (in the data set on Staphylococcus aureus [4]; in data set [5]; against Enterococcus faecalis; against Streptococcus pneumoniae; with Staphylococcus aureus [9]) was above 16 µg/mL in each case.
Turning to `CC(=O)NC[C@@H]1OC(=O)N2c3ccc(-c4ccc(N5CCOC5=O)nc4)cc3S(=O)(=O)C[C@@H]12`, the minimum inhibitory concentration (MIC) (against Staphylococcus aureus [4]; in data set [5]; in the data set with Enterococcus faecalis; in the data set with Streptococcus pneumoniae; against Staphylococcus aureus [9]) was above 16 µg/mL each time.
Regarding `CC(=O)NCC1OC(=O)N2c3ccc(-c4ccc(N5CCOC5=O)nc4)cc3N(C(=O)OC(C)(C)C)CC12` (stereo not given), the minimum inhibitory concentration (MIC) (with Staphylococcus aureus [4]; in [5]; in the data set with Enterococcus faecalis; in the data set with Streptococcus pneumoniae; in the data set on Staphylococcus aureus [9]) was above 16 µg/mL throughout.
For `CC(=O)NCC1OC(=O)N2c3ccc(-c4ccc(N5CCOC5=O)nc4)cc3NCC12` (stereo not given), the MIC is 16 µg/mL (≈ 37.8 µM) against Staphylococcus aureus [4]; 16 µg/mL (≈ 37.8 µM) in data set [5]; 16 µg/mL (≈ 37.8 µM) in the data set on Enterococcus faecalis; 4 µg/mL (≈ 9.45 µM) against Streptococcus pneumoniae; above 2 µg/mL in data set [7]; above 4 µg/mL against Staphylococcus aureus [8]. Also, the MIC with Staphylococcus aureus [9] came to 16 µg/mL (≈ 37.8 µM).
As for `CN1CC(c2ccc(-c3ccc4c(c3)OC[C@H]3[C@H](CO)SC(=O)N43)cn2)OC1=O` (single isomer, unassigned), the minimum inhibitory concentration (MIC) (in the data set on Staphylococcus aureus [4]; in data set [5]; against Enterococcus faecalis; in the data set with Streptococcus pneumoniae; with Staphylococcus aureus [9]) was above 16 µg/mL each time.
As for `CC(=O)NC[C@@H]1OC(=O)N2c3ccc(-c4ccc(C5CN(C)C(=O)O5)nc4)cc3SC[C@@H]12` (single isomer, unassigned), the CLH was 0 with Liver microsome [1] and 9.08 with Liver microsome [3]. The minimal inhibitory concentration (MIC) worked out at 4 µg/mL (≈ 8.8 µM) in the data set with Staphylococcus aureus [4]; 2 µg/mL (≈ 4.4 µM) in data set [5]; 4 µg/mL (≈ 8.8 µM) against Enterococcus faecalis; 2 µg/mL (≈ 4.4 µM) in the data set on Streptococcus pneumoniae; 2 µg/mL (≈ 4.4 µM) in data set [7]; 2 µg/mL (≈ 4.4 µM) in the data set with Staphylococcus aureus [8]. Moreover, the minimum inhibitory concentration (MIC) with Staphylococcus aureus [9] stood at 4 µg/mL (≈ 8.8 µM). In addition, the half-life at 0.1 µM in [6] turned out to be 3.85 h.
Regarding `CC(=O)NC[C@H]1CN(c2ccc(N3CCOCC3)c(F)c2)C(=O)O1` [LINEZOLID], the figures for the minimal inhibitory concentration (MIC) (in data set [5]; in data set [7]; in the data set with Staphylococcus aureus [8]) were 2 µg/mL (≈ 5.93 µM), 2 µg/mL (≈ 5.93 µM) and 1 µg/mL (≈ 2.96 µM), respectively.

Broadly, the half-life is the time needed for the level to fall by half in the phase considered. Usually MIC stands for the lowest concentration that inhibits growth of the organism.
